For assay [1], the target named is PEG-3 (UniProt Q6IN02). The assay can be described thus: inhibition of PEG-3 promoter-driven reporter – cell-based, HeLa, luciferase, CREF/GAPDH counter-screen panel, dose response (AID 624167). The note with it: HeLa PEG-Prom luciferase reporter, overnight, CREF/GAPDH counter-screens, mean of runs.
Assay [2] relates to PEG-3. The assay is described as above. The note with it: HeLa PEG-Prom luciferase reporter, overnight, CREF/GAPDH counter-screens.
A further assay deals with Rat fibroblasts (CREF). The description is as above. Conditions: CREF/GAPDH counter-screens.
A further assay deals with GAPDH. The assay is described as above. Conditions: CREF/GAPDH counter-screens.
Experiment in assay [3]: as above
Conditions: CREF/GAPDH counter-screens; GAPDH; mean of runs.

The mark [4] stands for this setting: run 1, dose range 1, individual replicate IC50 per panel.
Setting [5] is: run 2, dose range 1, individual replicate IC50 per panel.

The source made the active and inactive calls.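 How the source made its calls: active means mean IC50 for reducing PEG3 promoter reporter signal at or below a set limit, with IC50 above the limit in both counter screens; inactive means the rest, including counter screen hits.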

PEG-3 (UniProt Q6IN02), sequence (Q6IN02 whole entry, looked up): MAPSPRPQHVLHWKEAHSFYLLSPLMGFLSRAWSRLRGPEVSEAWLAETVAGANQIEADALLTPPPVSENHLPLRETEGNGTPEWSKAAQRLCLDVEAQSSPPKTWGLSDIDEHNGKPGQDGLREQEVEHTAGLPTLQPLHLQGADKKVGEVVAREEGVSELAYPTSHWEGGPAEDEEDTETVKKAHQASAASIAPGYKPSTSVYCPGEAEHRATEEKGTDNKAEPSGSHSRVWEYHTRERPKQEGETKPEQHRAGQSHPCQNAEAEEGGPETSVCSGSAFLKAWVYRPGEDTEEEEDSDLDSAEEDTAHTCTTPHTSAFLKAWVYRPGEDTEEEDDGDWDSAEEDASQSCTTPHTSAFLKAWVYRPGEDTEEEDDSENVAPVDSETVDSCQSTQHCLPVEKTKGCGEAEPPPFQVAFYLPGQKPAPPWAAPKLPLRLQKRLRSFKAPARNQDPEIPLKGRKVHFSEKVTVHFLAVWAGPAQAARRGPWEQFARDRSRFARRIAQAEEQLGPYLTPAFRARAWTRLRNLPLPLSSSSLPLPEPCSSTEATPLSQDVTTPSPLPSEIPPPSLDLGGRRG

As to `CCC(C)Cn1c(O)cc2nn(-c3nc4ccccc4s3)c(=O)c-2c1C` (centres undefined), the IC50 at PEG-3 [1] was 3 µM; in the assay with PEG-3 [2] (setting [4]) it was 5.8 µM; in the assay with PEG-3 [2] (setting [5]), less than 0.2 µM; with Rat fibroblasts (CREF) (mean of runs), 65.6 µM (inactive); in the assay on Rat fibroblasts (CREF) (setting [4]), 72.2 µM; with Rat fibroblasts (CREF) (setting [5]), 58.9 µM. The IC50 with GAPDH (setting [4]) was 3.06 µM; in the assay on GAPDH (setting [5]) it was 2.52 µM; in assay [3], 2.79 µM.

For the compound `O=C(COc1ccc2c(c1)CCC2)Nc1ccccn1`, the IC50 on PEG-3 [1] was 4.55 µM; in the assay on PEG-3 [2] (setting [4]) it was 3.52 µM; in the assay on PEG-3 [2] (setting [5]), 5.59 µM; in the assay on Rat fibroblasts (CREF) (mean of runs), 33.2 µM; in the assay with Rat fibroblasts (CREF) (setting [4]), 29.2 µM; in the assay with Rat fibroblasts (CREF) (setting [5]), 37.2 µM. Further, the figures for the IC50 (in the assay on GAPDH (setting [4]); with GAPDH (setting [5]); in assay [3]) were 2.94 µM, 8.7 µM and 5.82 µM, respectively.

Regarding `CCCCC(=O)NC(c1ccc(OC)cc1)c1ccc2cccnc2c1O` (centres undefined), the IC50 at PEG-3 [1] was 8.02 µM; with PEG-3 [2] (setting [4]) it was 8.04 µM; in the assay with PEG-3 [2] (setting [5]), 7.99 µM; with Rat fibroblasts (CREF) (mean of runs), > 100 µM (inactive); in the assay with Rat fibroblasts (CREF) (setting [4]), greater than 100 µM; in the assay with Rat fibroblasts (CREF) (setting [5]), greater than 100 µM. Further, the values for the IC50 (with GAPDH (setting [4]); with GAPDH (setting [5]); in assay [3]) were greater than 100 µM, greater than 100 µM and > 100 µM (inactive), respectively.

As to `Cc1ccc(OCC(=O)c2cc(C)n(-c3ccccc3)c2C)c([N+](=O)[O-])n1`, at PEG-3 [1], the IC50 entry was “inactive”. Moreover, the IC50 in the assay with PEG-3 [2] (setting [4]) was 0.686 µM; in the assay on PEG-3 [2] (setting [5]) it was greater than 100 µM; with Rat fibroblasts (CREF) (mean of runs) it was > 100 µM (inactive); in the assay on Rat fibroblasts (CREF) (setting [4]) it was greater than 100 µM; in the assay with Rat fibroblasts (CREF) (setting [5]) it was greater than 100 µM; in the assay with GAPDH (setting [4]), 2.62 µM. For the same compound, the IC50 in the assay on GAPDH (setting [5]) was 8.38 µM; in assay [3], 5.5 µM.

Turning to `Cc1ccc(/C=C2\SC(=S)N(CCCC(=O)NNC(=O)c3ccccc3O)C2=O)cc1`, the IC50 on PEG-3 [1] was 0.95 µM; in the assay with PEG-3 [2] (setting [4]), 1.71 µM; in the assay on PEG-3 [2] (setting [5]), less than 0.2 µM; in the assay on Rat fibroblasts (CREF) (mean of runs), > 100 µM (inactive); with Rat fibroblasts (CREF) (setting [4]), greater than 100 µM; in the assay with Rat fibroblasts (CREF) (setting [5]) it was greater than 100 µM. The IC50 was 2.65 µM with GAPDH (setting [4]), 7.43 µM with GAPDH (setting [5]) and 5.04 µM in assay [3].

On to `O=[N+]([O-])c1nn(-c2ccc3c(c2)OCCO3)n(O)c1=Nc1ccc(Cl)cc1`, for which the IC50 at PEG-3 [1] is 0.673 µM; in the assay with PEG-3 [2] (setting [4]), 1.07 µM; in the assay on PEG-3 [2] (setting [5]), 0.271 µM; with Rat fibroblasts (CREF) (mean of runs), > 100 µM (inactive); with Rat fibroblasts (CREF) (setting [4]) it was greater than 100 µM; in the assay with Rat fibroblasts (CREF) (setting [5]), greater than 100 µM. The IC50 is 2.94 µM in the assay on GAPDH (setting [4]), 7.41 µM with GAPDH (setting [5]) and 5.17 µM in assay [3].

Regarding `O=C(CCSc1nc2ccccc2s1)N/N=C/c1c(O)ccc2ccccc12`, the IC50 was 4.29 µM on PEG-3 [1]; 5.86 µM with PEG-3 [2] (setting [4]); 2.71 µM in the assay on PEG-3 [2] (setting [5]); > 100 µM (inactive) with Rat fibroblasts (CREF) (mean of runs); greater than 100 µM in the assay on Rat fibroblasts (CREF) (setting [4]); greater than 100 µM in the assay on Rat fibroblasts (CREF) (setting [5]). The IC50 was greater than 100 µM in the assay with GAPDH (setting [4]), greater than 100 µM in the assay with GAPDH (setting [5]) and > 100 µM (inactive) in assay [3].

For `N=c1n(CC(=O)c2ccc([N+](=O)[O-])cc2)c2ccccc2n1Cc1ccc(Cl)cc1`, the IC50 was 9.2 µM on PEG-3 [1]; 9.65 µM in the assay on PEG-3 [2] (setting [4]); 8.76 µM in the assay on PEG-3 [2] (setting [5]); 27 µM with Rat fibroblasts (CREF) (mean of runs); 26.4 µM in the assay on Rat fibroblasts (CREF) (setting [4]); 27.6 µM in the assay on Rat fibroblasts (CREF) (setting [5]). Besides, the IC50 was greater than 80 µM in the assay on GAPDH (setting [4]) and 33.3 µM with GAPDH (setting [5]). Also, the IC50 entry in assay [3] is “inactive”.

Regarding `CCCC(=O)NC(c1ccc(Cl)cc1)c1ccc2cccnc2c1O` (centres undefined), the IC50 on PEG-3 [1] was 3.29 µM; in the assay on PEG-3 [2] (setting [4]), 2.29 µM; in the assay with PEG-3 [2] (setting [5]), 4.28 µM; with Rat fibroblasts (CREF) (mean of runs) it was > 100 µM (inactive); in the assay with Rat fibroblasts (CREF) (setting [4]), greater than 100 µM; in the assay with Rat fibroblasts (CREF) (setting [5]), greater than 100 µM. The IC50 with GAPDH (setting [4]) worked out at 27.5 µM; in the assay on GAPDH (setting [5]) it was 58.5 µM. In addition, the IC50 result in assay [3] was “inactive”.

On to `COc1ccc(N(C(=O)CCl)C(C(=O)NC2CCCCC2)c2cccnc2)cc1` (centres undefined), for which the IC50 is 8.05 µM at PEG-3 [1]; 6.62 µM with PEG-3 [2] (setting [4]); 9.49 µM in the assay with PEG-3 [2] (setting [5]); 2.68 µM in the assay on Rat fibroblasts (CREF) (mean of runs); 2.81 µM with Rat fibroblasts (CREF) (setting [4]); 2.56 µM with Rat fibroblasts (CREF) (setting [5]). For the same compound, the IC50 in the assay with GAPDH (setting [4]) came to 40.4 µM; with GAPDH (setting [5]) it was 39.6 µM. For the same compound, the IC50 entry in assay [3] was “inactive”.

For the compound `CN(C)c1ccc(C=c2c3ccccc3n3c2cc(-c2ccccc2)[n+]3C)cc1`, the IC50 on PEG-3 [1] was 4.3 µM; with PEG-3 [2] (setting [4]) it was 7.06 µM; with PEG-3 [2] (setting [5]), 1.54 µM; in the assay with Rat fibroblasts (CREF) (mean of runs), 29.4 µM; in the assay with Rat fibroblasts (CREF) (setting [4]), 27.5 µM; with Rat fibroblasts (CREF) (setting [5]), 31.3 µM. Further, the concentration for half-maximal inhibition (IC50) in the assay with GAPDH (setting [4]) was 9.4 µM; with GAPDH (setting [5]), 7.23 µM; in assay [3], 8.31 µM.
